Measured values published in ChEMBL document CHEMBL1201862, “PubChem BioAssay data set” (2004).
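Grown in 96-well plates, cells were treated for 48 hours with each compound at five concentrations. Insufficient inhibition: endpoint recorded as highest concentration tested. GI50 is the concentration that inhibits growth by half.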 Active and inactive are the calls of the source. Cut-off read from the data, not from the text of the source: active = GI50 up to about 1.1 µM and inactive = higher.

Legend:
Test in all cases: NCI tumour cell line growth inhibition, 48 h
NCI-H522 = system: NCI-H522
HT-29 = system: HT-29
EKVX = system: EKVX
LOX IMVI = system: LOX IMVI
NCI-H226 = system: NCI-H226
SK-MEL-2 = system: SK-MEL-2
SK-OV-3 = system: SK-OV-3
UO-31 = system: UO-31
LXFL 529 = system: LXFL 529
COLO 205 = system: COLO 205
NCI-H460 = system: NCI-H460
K562 = system: K562
ACHN = system: ACHN
UACC-257 = system: UACC-257
786-0 = system: 786-0
SK-MEL-28 = system: SK-MEL-28
TK-10 = system: TK-10
MDA-N = system: MDA-N
MCF7 = system: MCF7
MDA-MB-231 = system: MDA-MB-231

Structure (SMILES)	GI50 (NCI-H522)	GI50 (HT-29)	GI50 (EKVX)	GI50 (LOX IMVI)	GI50 (NCI-H226)	GI50 (SK-MEL-2)	GI50 (SK-OV-3)	GI50 (UO-31)	GI50 (LXFL 529)	GI50 (COLO 205)	GI50 (NCI-H460)	GI50 (K562)	GI50 (ACHN)	GI50 (UACC-257)	GI50 (786-0)	GI50 (SK-MEL-28)	GI50 (TK-10)	GI50 (MDA-N)	GI50 (MCF7)	GI50 (MDA-MB-231)
CN1CCN=C1c1nnn(-c2ccc([N+](=O)[O-])cc2)c1-c1ccccc1	> 100 µM (inactive)	64.9 µM (inactive)	> 100 µM (inactive)	94.6 µM (inactive)	> 100 µM (inactive)	> 100 µM (inactive)	> 100 µM (inactive)	75.5 µM (inactive)	> 100 µM (inactive)	> 100 µM (inactive)	> 100 µM (inactive)	33.7 µM (inactive)	> 100 µM (inactive)	> 100 µM (inactive)	> 100 µM (inactive)	> 100 µM (inactive)	> 100 µM (inactive)			
O=[N+]([O-])c1ccc(Sc2c3ccccc3nc3cc(Cl)ccc23)cc1	> 10 µM (inactive)	> 100 µM (inactive)	> 10 µM (inactive)	> 10 µM (inactive)	> 10 µM (inactive)	> 10 µM (inactive)	> 10 µM (inactive)	> 10 µM (inactive)	> 10 µM (inactive)	> 10 µM (inactive)	> 10 µM (inactive)	> 10 µM (inactive)	> 10 µM (inactive)	> 10 µM (inactive)	> 10 µM (inactive)	> 10 µM (inactive)	> 10 µM (inactive)			
COC(=O)[C@@H]1c2cc3c(c(O)c2[C@@H](OC2OC(C)C(OC)C(C)(OC)C2OC)C[C@]1(C)O)C(=O)c1c(O)cc2c(c1C3=O)O[C@H]1O[C@]2(C)[C@H](O)[C@@H](N(C)C)[C@@H]1O (some centres undefined)	0.0138 µM (active)	0.00815 µM (active)	0.0266 µM (active)	0.00254 µM (active)	0.00427 µM (active)	0.00337 µM (active)	0.0426 µM (active)	0.301 µM (active)	0.000391 µM (active)	0.00629 µM (active)	0.00377 µM (active)	0.0155 µM (active)	0.069 µM (active)	0.0143 µM (active)	0.00635 µM (active)	0.00556 µM (active)	0.0297 µM (active)	0.0471 µM (active)	0.033 µM (active)	0.0288 µM (active)
COc1cc2cnc3c4cc(OCc5ccccc5)ccc4ccc3c2cc1OC	17.3 µM (inactive)	25.1 µM (inactive)	58.3 µM (inactive)	29.6 µM (inactive)	25.8 µM (inactive)	18.8 µM (inactive)	12.7 µM (inactive)	27.2 µM (inactive)	18.8 µM (inactive)	18.5 µM (inactive)	19 µM (inactive)	10.4 µM (inactive)	46.7 µM (inactive)	26.7 µM (inactive)	12.1 µM (inactive)	38.3 µM (inactive)	16.1 µM (inactive)			
CC(=O)N1C/C(=C\c2ccccc2)C(=O)/C(=C/c2ccccc2)C1	12.3 µM (inactive)	3.04 µM (inactive)	24 µM (inactive)	3.43 µM (inactive)	17.4 µM (inactive)	24.9 µM (inactive)	22.5 µM (inactive)	19.7 µM (inactive)	9.4 µM (inactive)	17.6 µM (inactive)	17.4 µM (inactive)	2.89 µM (inactive)	16.9 µM (inactive)	6.9 µM (inactive)	15.6 µM (inactive)	13.2 µM (inactive)	18.2 µM (inactive)			
NC(=O)c1cn(C2OC(CO)C(O)C2O)c(=O)[nH]c1=O (centres undefined)	> 100 µM (inactive)	> 100 µM (inactive)	> 100 µM (inactive)	> 100 µM (inactive)	> 100 µM (inactive)	> 100 µM (inactive)	> 100 µM (inactive)	> 100 µM (inactive)	> 100 µM (inactive)	> 100 µM (inactive)	> 100 µM (inactive)	> 100 µM (inactive)	> 100 µM (inactive)	> 100 µM (inactive)	> 100 µM (inactive)	> 100 µM (inactive)	> 100 µM (inactive)			
CC(=O)[O-].[Zn+].c1ccc(/C(=N\Nc2ccccn2)c2ccccn2)cc1	0.165 µM (active)	0.01 µM (active)	0.00629 µM (active)	0.264 µM (active)	0.0929 µM (active)	1.33 µM (inactive)	0.0615 µM (active)	0.253 µM (active)	0.0429 µM (active)	0.00028 µM (active)	0.31 µM (active)	0.00535 µM (active)	0.0653 µM (active)	0.08 µM (active)	0.137 µM (active)	0.255 µM (active)	0.44 µM (active)	0.426 µM (active)	0.000912 µM (active)	
Cc1c2cc[n+](C)cc2c(C)c2c1[nH]c1ccc(Cl)cc12	0.617 µM (active)	3.34 µM (inactive)	0.536 µM (active)	4.67 µM (inactive)	0.272 µM (active)	2.25 µM (inactive)	1.2 µM (inactive)	1.51 µM (inactive)	0.286 µM (active)	0.494 µM (active)	4.81 µM (inactive)	2.21 µM (inactive)	3.78 µM (inactive)	8.38 µM (inactive)	0.232 µM (active)	2.92 µM (inactive)	6.95 µM (inactive)	7.11 µM (inactive)	2.59 µM (inactive)	4.41 µM (inactive)
